According to US7407982B2, “Oligo or polyalkylene glycol-coupled thrombin inhibitors” (HaemoSys GmbH, priority 2001, dated 2008):
Like-named read-outs stand apart in the source and are kept apart here.

Tests used:
[1] = biological target: T1, human α-thrombin (Homo sapiens, UniProt P00734); assay: Determination of Ki for thrombin inhibition (chromogenic or fluorogenic substrate, Dixon); type: biochemical
T1 construct: 50 μl human α-thrombin (Kordia); purchased Kordia
Method: The Ki values are the average values of at least three calculations.
For determining the thrombin inhibiting effect of all reversibly binding inhibitors and inhibitor conjugates with inhibiting constants smaller than 1 nM, a fluorescence spectrometer (LS50B from the company Perkin Elmer) was used. […] The Ki values are the average values of at least three calculations.

[2] = biological target: T2, trypsin (Bos taurus, UniProt P00760); assay: Ki values for trypsin, determined analogously; type: biochemical
T2 sequence (P00760 24-246): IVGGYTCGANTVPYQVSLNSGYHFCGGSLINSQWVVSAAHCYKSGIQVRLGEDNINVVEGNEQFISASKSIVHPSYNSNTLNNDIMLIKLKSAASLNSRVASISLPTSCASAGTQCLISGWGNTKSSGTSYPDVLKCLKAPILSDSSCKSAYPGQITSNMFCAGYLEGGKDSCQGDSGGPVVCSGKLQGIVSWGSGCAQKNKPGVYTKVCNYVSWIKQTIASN
Method: The Ki values for trypsin were determined analogously.
For optimizing the inhibitor conjugates, in particular of the following Examples 1 and 2, suitable groups R1 were sought which allow as strong a thrombin inhibition as possible. For examining the selectivity of the compounds, the inhibiting constants for trypsin were determined as well. The higher the quotient [KiTrypsin/KiThrombin], the more selectively the compound functions as a thrombin inhibitor. In order to facilitate the synthesis, this optimization was first carried out without coupling a polyalkylene glycol group to inhibitor molecules of formula (II) as listed in Table I. These compounds, which are active as thrombin inhibitors themselves, can be used as synthetic intermediates for the inhibitor conjugates of formula (I). As a central component, a glycyl-prolyl-dipeptide was consistently incorporated into the inhibitors.

[3] = Table I, formula (II) compounds
[4] = Table 2, formula (III) compounds

Compound	Ki [1, 3]	Ki Trypsin/Ki Thrombin ([1]; Table I, selectivity quotient)	Ki [1, 4]	Ki Trypsin/Ki Thrombin ([1]; Table 2, selectivity quotient)	other results
4-Methoxy-benzenesulfonyl-Lys(propionyl-PEG5000-OMe)-Pro-4-amidinobenzylamide	–	–	–	–	KiTrypsin/KiThrombin ([1]; Example 8, selectivity quotient): 64; Ki ([1]; Example 8, read-out: KiThrombin): 0.95 nM; Ki ([2]; Example 8, read-out: KiTrypsin): 61 nM
COc1cc(C)c(S(=O)(=O)NCC(=O)N2CCC[C@H]2C(=O)NCc2ccc(C(=N)N)cc2)c(C)c1C [compound 2]	1.3 nM	12.1	–	–	Ki [2, 3]: 15.7 nM
N=C(N)c1ccc(CNC(=O)[C@@H]2CCCN2C(=O)CNS(=O)(=O)c2ccccc2)cc1 [compound 15]	10.8 nM	0.96	–	–	–
Cc1c(C)c(C)c(S(=O)(=O)NCC(=O)N2CCC[C@H]2C(=O)NCc2ccc(C(=N)N)cc2)c(C)c1C [compound 16]	12.7 nM	2.2	–	–	–
N=C(N)c1ccc(CNC(=O)[C@@H]2CCCN2C(=O)CNS(=O)(=O)c2cccc(Cl)c2Cl)cc1 [compound 17]	12.7 nM	0.87	–	–	–
Cc1cc(C)c(C)c(S(=O)(=O)NCC(=O)N2CCC[C@H]2C(=O)NCc2ccc(C(=N)N)cc2)c1C [compound 18]	13.4 nM	2.5	–	–	–
CC(C)c1cc(C(C)C)c(S(=O)(=O)NCC(=O)N2CCC[C@H]2C(=O)NCc2ccc(C(=N)N)cc2)c(C(C)C)c1 [compound 19]	13.5 nM	0.67	–	–	Ki [2, 3]: 9.1 nM
N=C(N)c1ccc(CNC(=O)[C@@H]2CCCN2C(=O)CNS(=O)(=O)CC2CCCCC2)cc1 [compound 20]	13.6 nM	0.22	–	–	Ki [2, 3]: 3.1 nM
N=C(N)c1ccc(CNC(=O)[C@@H]2CCCN2C(=O)CNS(=O)(=O)c2ccc(Cl)cc2Cl)cc1 [compound 21]	15.1 nM	1.2	–	–	–
Cc1ccc(S(=O)(=O)NCC(=O)N2CCC[C@H]2C(=O)NCc2ccc(C(=N)N)cc2)cc1 [compound 22]	16.1 nM	0.88	–	–	–
N=C(N)c1ccc(CNC(=O)[C@@H]2CCCN2C(=O)CNS(=O)(=O)c2ccc(Cl)c(Cl)c2Cl)cc1 [compound 23]	16.4 nM	0.71	–	–	–
Cc1cc(C)c(S(=O)(=O)NCC(=O)N2CCC[C@H]2C(=O)NCc2ccc(C(=N)N)cc2)c(C)c1 [compound 24]	16.6 nM	0.80	–	–	–
Cc1cc(Cl)cc(Cl)c1S(=O)(=O)NCC(=O)N1CCC[C@H]1C(=O)NCc1ccc(C(=N)N)cc1 [compound 25]	16.9 nM	1.1	–	–	–
CCc1ccc(S(=O)(=O)NCC(=O)N2CCC[C@H]2C(=O)NCc2ccc(C(=N)N)cc2)cc1 [compound 26]	19.1 nM	2.6	–	–	–
N=C(N)c1ccc(CNC(=O)[C@@H]2CCCN2C(=O)CNS(=O)(=O)c2ccccc2Cl)cc1 [compound 27]	19.3 nM	0.98	–	–	–
Cc1c(C)c(S(=O)(=O)NCC(=O)N2CCC[C@H]2C(=O)NCc2ccc(C(=N)N)cc2)c(C)c2c1OC(C)(C)C2 [compound 28]	30.3 nM	1.2	–	–	Ki [2, 3]: 37.1 nM
CC(C)(C)c1ccc(S(=O)(=O)NCC(=O)N2CCC[C@H]2C(=O)NCc2ccc(C(=N)N)cc2)cc1 [compound 29]	32.2 nM	0.32	–	–	–
N=C(N)c1ccc(CNC(=O)[C@@H]2CCCN2C(=O)CNS(=O)(=O)c2cccc([N+](=O)[O-])c2)cc1 [compound 30]	38 nM	0.42	–	–	–
N=C(N)c1ccc(CNC(=O)[C@@H]2CCCN2C(=O)CNS(=O)(=O)CCc2ccccc2)cc1 [compound 31]	41.9 nM	0.39	–	–	Ki [2, 3]: 16.5 nM

Compound	Ki [1, 3]	Ki Trypsin/Ki Thrombin ([1]; Table I, selectivity quotient)	Ki [1, 4]	Ki Trypsin/Ki Thrombin ([1]; Table 2, selectivity quotient)	other results
N=C(N)c1ccc(CNC(=O)[C@@H]2CCCN2C(=O)CNS(=O)(=O)/C=C/c2ccccc2)cc1 [compound 32]	44.3 nM	0.05	–	–	–
N#Cc1ccc(S(=O)(=O)NCC(=O)N2CCC[C@H]2C(=O)NCc2ccc(C(=N)N)cc2)cc1 [compound 34]	76 nM	0.33	–	–	–
N=C(N)c1ccc(CNC(=O)[C@@H]2CCCN2C(=O)CNS(=O)(=O)c2ccc([N+](=O)[O-])cc2)cc1 [compound 35]	115 nM	0.11	–	–	–
N=C(N)c1ccc(CNC(=O)[C@@H]2CCCN2C(=O)[C@H](CC(=O)OCc2ccccc2)NS(=O)(=O)c2ccc3ccccc3c2)cc1 [compound 36]	–	–	1.3 nM	13.6	Ki [2, 4]: 17.6 nM
N=C(N)c1ccc(CNC(=O)[C@@H]2CCCN2C(=O)[C@H](CN)NS(=O)(=O)c2ccc3ccccc3c2)cc1 [compound 37]	–	–	2.4 nM	4.3	Ki [2, 4]: 10.3 nM
N=C(N)c1ccc(CNC(=O)C2CCCN2C(=O)C(CO)NS(=O)(=O)c2ccc3ccccc3c2)cc1 (centres unmarked) [compound 38]	–	–	2.54 nM	10.9	–
N=C(N)c1ccc(CNC(=O)C2CCCN2C(=O)C(CC(N)=O)NS(=O)(=O)c2ccc3ccccc3c2)cc1 (centres unmarked) [compound 39]	–	–	3.4 nM	11	–
N=C(N)c1ccc(CNC(=O)C2CCCN2C(=O)C(CCC(N)=O)NS(=O)(=O)c2ccc3ccccc3c2)cc1 (centres unmarked) [compound 40]	–	–	3.8 nM	4.2	–
N=C(N)c1ccc(CNC(=O)C2CCCN2C(=O)C(CC(=O)O)NS(=O)(=O)c2ccc3ccccc3c2)cc1 (centres unmarked) [compound 42]	–	–	24.1 nM	2.9	–
N=C(N)c1ccc(CNC(=O)[C@@H]2CCCN2C(=O)[C@@H](CC(N)=O)NS(=O)(=O)c2ccc3ccccc3c2)cc1 [compound 43]	–	–	52.5 nM	0.42	Ki [2, 4]: 22.4 nM
COc1ccc(S(=O)(=O)N[C@@H](CC(=O)NCc2ccc(C#N)cc2)C(=O)N2CCC[C@H]2C(=O)NCc2ccc(C(=N)N)cc2)cc1 [compound 44]	–	–	0.045 nM	911	Ki [2, 4]: 41 nM
COc1ccc(S(=O)(=O)N[C@@H](CC(=O)NCc2ccc(CN)cc2)C(=O)N2CCC[C@H]2C(=O)NCc2ccc(C(=N)N)cc2)cc1 [compound 45]	–	–	0.061 nM	639	Ki [2, 4]: 39 nM
COc1ccc(S(=O)(=O)NC(CC(=O)NCc2cccc(C#N)c2)C(=O)N2CCCC2C(=O)NCc2ccc(C(=N)N)cc2)cc1 (centres unmarked) [compound 46]	–	–	0.061 nM	1163	–
COc1ccc(S(=O)(=O)N[C@@H](CC(=O)NCc2ccccc2)C(=O)N2CCC[C@H]2C(=O)NCc2ccc(C(=N)N)cc2)cc1 [compound 47]	–	–	0.065 nM	600	Ki [2, 4]: 39 nM
COc1ccc(S(=O)(=O)N[C@@H](CC(=O)NCc2cccc(CN)c2)C(=O)N2CCC[C@H]2C(=O)NCc2ccc(C(=N)N)cc2)cc1 [compound 48]	–	–	0.08 nM	512	Ki [2, 4]: 41 nM
COc1ccc(S(=O)(=O)N[C@@H](CC(=O)OCc2ccccc2)C(=O)N2CCC[C@H]2C(=O)NCc2ccc(C(=N)N)cc2)cc1 [compound 49]	–	–	0.21 nM	181	Ki [2, 4]: 38 nM
COc1ccc(S(=O)(=O)N[C@@H](CO)C(=O)N2CCC[C@H]2C(=O)NCc2ccc(C(=N)N)cc2)cc1 [compound 51]	–	–	0.255 nM	67	Ki [2, 4]: 17 nM
COC(=O)C[C@H](NS(=O)(=O)c1ccc(OC)cc1)C(=O)N1CCC[C@H]1C(=O)NCc1ccc(C(=N)N)cc1 [compound 52]	–	–	0.68 nM	31	Ki [2, 4]: 21.4 nM
COc1ccc(S(=O)(=O)N[C@@H](CC(=O)O)C(=O)N2CCC[C@H]2C(=O)NCc2ccc(C(=N)N)cc2)cc1 [compound 55]	–	–	1.6 nM	48	–
